Laboratory results published in patent US6355799B1, “Substituted benzene compounds, process for their preparation, and herbicidal and defoliant compositions containing them” (ISK Americas Incorporated, priority 1997, dated 2002).

Key:
Assay type in all cases: in vivo
[1] = test system: redroot pigweed (Amaranthus retroflexus, AMARE); experiment: Pre-emerge test, greenhouse herbicide activity screening; settings: pre-emerge, rated 14 days after application, 0 = no damage, 100 = complete death
Procedure, shortened: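 Compounds in acetone were track-sprayed at 15-1000 g ai/ha (187 l/ha) on sandy loam pots: pre-emerge one day after seeding, post-emerge at 2-3 leaf stage with 0.25% v/v non-ionic surfactant. Phytotoxicity was rated 14 days later on a 0 (no damage) to 100 (complete death) scale.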

[2] = test system: barnyardgrass (Echinochloa crus-galli, ECHCG); experiment: as above; settings: pre-emerge, rated 14 days after application, 0 = no damage, 100 = complete death
Procedure, shortened: (§1)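 Visual ratings on a 0-100 scale (0 no damage, 100 all plants dead) were taken at 14 days after treatment. Rates of 15-1000 g ai/ha in acetone, 187 l/ha, were sprayed onto soil one day after planting (pre-emerge) or onto 2-3 leaf plants with 0.25% v/v surfactant (post-emerge).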

[3] = test system: green foxtail (Setaria viridis, SETVI); experiment: as above; settings: pre-emerge, rated 14 days after application, 0 = no damage, 100 = complete death
Procedure, shortened: as §1

[4] = test system: ivyleaf morningglory (Ipomoea hederacea, IPOHE); experiment: as above; settings: pre-emerge, rated 14 days after application, 0 = no damage, 100 = complete death
Procedure, shortened: as §1

[5] = test system: johnsongrass (Sorghum halepense, SORHA); experiment: as above; settings: pre-emerge, rated 14 days after application, 0 = no damage, 100 = complete death
Procedure, shortened: as §1

[6] = test system: lambsquarters (Chenopodium album, CHEAL); experiment: as above; settings: pre-emerge, rated 14 days after application, 0 = no damage, 100 = complete death
Procedure, shortened: as §1

[7] = test system: large crabgrass (Digitaria sanguinalis, DIGSA); experiment: as above; settings: pre-emerge, rated 14 days after application, 0 = no damage, 100 = complete death
Procedure, shortened: as §1

[8] = test system: sicklepod (Cassia obtusifolia, CASOB); experiment: as above; settings: pre-emerge, rated 14 days after application, 0 = no damage, 100 = complete death
Procedure, shortened: as §1

[9] = test system: velvetleaf (Abutilon theophrasti, ABUTH); experiment: as above; settings: pre-emerge, rated 14 days after application, 0 = no damage, 100 = complete death
Procedure, shortened: as §1

[10] = test system: field corn (Zea mays L., var. Dekalb 535, CORN); experiment: Pre-emerge test, crop safety; settings: pre-emerge, rated 14 days after application, 0 = no damage, 100 = complete death
Procedure, shortened: (§2)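 Plants grown in 10 cm pots of sandy loam mix received acetone-dissolved compounds through a moving flat-fan nozzle. Doses ranged from 15 to 1000 g ai/ha. Pre-emerge pots were seeded one day earlier, post-emerge pots 8–21 days earlier. Fourteen days on, each pot was graded 0–100 for damage.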

[11] = test system: upland rice (Oryza sp., var. Tebonnet, RICE); experiment: Pre-emerge test, crop safety; settings: pre-emerge, rated 14 days after application, 0 = no damage, 100 = complete death
Procedure, shortened: as §2

[12] = test system: barnyardgrass (Echinochloa crus-galli, ECHCG); experiment: Post-emerge test, greenhouse herbicide activity screening; settings: phytotoxicity rating 0-100 (0 no damage, 100 complete death), 14 days after application
Procedure, shortened: (§3)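 Each test used a mechanized track sprayer delivering 187 l/ha of acetone solution at 15–1000 g ai/ha. Post-emerge foliage at 2–3 leaves was treated with added 0.25% v/v non-ionic surfactant and bottom-watered only. Injury was assessed on day 14, where 100 means total kill.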

[13] = test system: green foxtail (Setaria viridis, SETVI); experiment: as above; settings: phytotoxicity rating 0-100 (0 no damage, 100 complete death), 14 days after application
Procedure, shortened: as §3

[14] = test system: ivyleaf morningglory (Ipomoea hederacea, IPOHE); experiment: as above; settings: phytotoxicity rating 0-100 (0 no damage, 100 complete death), 14 days after application
Procedure, shortened: as §3

[15] = test system: johnsongrass (Sorghum halepense, SORHA); experiment: as above; settings: phytotoxicity rating 0-100 (0 no damage, 100 complete death), 14 days after application
Procedure, shortened: as §3

[16] = test system: lambsquarters (Chenopodium album, CHEAL); experiment: as above; settings: phytotoxicity rating 0-100 (0 no damage, 100 complete death), 14 days after application
Procedure, shortened: as §3

[17] = test system: large crabgrass (Digitaria sanguinalis, DIGSA); experiment: as above; settings: phytotoxicity rating 0-100 (0 no damage, 100 complete death), 14 days after application
Procedure, shortened: as §3

[18] = test system: redroot pigweed (Amaranthus retroflexus, AMARE); experiment: as above; settings: phytotoxicity rating 0-100 (0 no damage, 100 complete death), 14 days after application
Procedure, shortened: as §3

[19] = test system: sicklepod (Cassia obtusifolia, CASOB); experiment: as above; settings: phytotoxicity rating 0-100 (0 no damage, 100 complete death), 14 days after application
Procedure, shortened: as §3

[20] = test system: velvetleaf (Abutilon theophrasti, ABUTH); experiment: as above; settings: phytotoxicity rating 0-100 (0 no damage, 100 complete death), 14 days after application
Procedure, shortened: as §3

[21] = test system: field corn (Zea mays L., var. Dekalb 535, CORN); experiment: Post-emerge test, crop safety; settings: phytotoxicity rating 0-100 (0 no damage, 100 complete death), 14 days after application
Procedure, shortened: as §1

[22] = test system: upland rice (Oryza sp., var. Tebonnet, RICE); experiment: Post-emerge test, crop safety; settings: phytotoxicity rating 0-100 (0 no damage, 100 complete death), 14 days after application
Procedure, shortened: as §1

Cc1c(Cl)cc(F)c(-n2c(=O)cc(C(F)(F)F)n(C)c2=O)c1N [Compound 1-37]
25: Post-emerge Herbicidal Activity RICE (crop damage) ([22]; 63 g ai/ha)
65: Post-emerge Herbicidal Activity CASOB ([19]; 63 g ai/ha)
80: Pre-emerge Herbicidal Activity CASOB (phytotoxicity rating, scale 0-100) ([8]; 63 g ai/ha) | Post-emerge Herbicidal Activity SETVI ([13]; 250 g ai/ha)
10: Post-emerge Herbicidal Activity SORHA ([15]; 63 g ai/ha) | Post-emerge Herbicidal Activity DIGSA ([17]; 63 g ai/ha) | Post-emerge Herbicidal Activity CORN (crop damage) ([21]; 63 g ai/ha)
95: Post-emerge Herbicidal Activity CHEAL ([16]; 63 g ai/ha)
20: Post-emerge Herbicidal Activity SETVI ([13]; 63 g ai/ha)
70: Post-emerge Herbicidal Activity SORHA ([15]; 250 g ai/ha) | Post-emerge Herbicidal Activity DIGSA ([17]; 250 g ai/ha)
90: Pre-emerge Herbicidal Activity ECHCG (phytotoxicity rating, scale 0-100) ([2]; 63 g ai/ha) | Pre-emerge Herbicidal Activity SORHA (phytotoxicity rating, scale 0-100) ([5]; 63 g ai/ha) | Pre-emerge crop damage CORN (phytotoxicity rating, scale 0-100) ([10]; 250 g ai/ha) | Pre-emerge crop damage RICE (phytotoxicity rating, scale 0-100) ([11]; 250 g ai/ha) | Post-emerge Herbicidal Activity ECHCG ([12]; 250 g ai/ha) | Post-emerge Herbicidal Activity AMARE ([18]; 63 g ai/ha) | Post-emerge Herbicidal Activity CASOB ([19]; 250 g ai/ha)
30: Post-emerge Herbicidal Activity ECHCG ([12]; 63 g ai/ha)
15: Pre-emerge crop damage CORN (phytotoxicity rating, scale 0-100) ([10]; 63 g ai/ha)
100: Pre-emerge Herbicidal Activity AMARE (phytotoxicity rating, scale 0-100) ([1]; 63 g ai/ha) | Pre-emerge Herbicidal Activity AMARE (phytotoxicity rating, scale 0-100) ([1]; 250 g ai/ha) | Pre-emerge Herbicidal Activity ECHCG (phytotoxicity rating, scale 0-100) ([2]; 250 g ai/ha) | Pre-emerge Herbicidal Activity SETVI (phytotoxicity rating, scale 0-100) ([3]; 63 g ai/ha) | Pre-emerge Herbicidal Activity SETVI (phytotoxicity rating, scale 0-100) ([3]; 250 g ai/ha) | Pre-emerge Herbicidal Activity IPOHE (phytotoxicity rating, scale 0-100) ([4]; 63 g ai/ha) | Pre-emerge Herbicidal Activity IPOHE (phytotoxicity rating, scale 0-100) ([4]; 250 g ai/ha) | Pre-emerge Herbicidal Activity SORHA (phytotoxicity rating, scale 0-100) ([5]; 250 g ai/ha) | Pre-emerge Herbicidal Activity CHEAL (phytotoxicity rating, scale 0-100) ([6]; 63 g ai/ha) | Pre-emerge Herbicidal Activity CHEAL (phytotoxicity rating, scale 0-100) ([6]; 250 g ai/ha) | Pre-emerge Herbicidal Activity DIGSA (phytotoxicity rating, scale 0-100) ([7]; 63 g ai/ha) | Pre-emerge Herbicidal Activity DIGSA (phytotoxicity rating, scale 0-100) ([7]; 250 g ai/ha) | Pre-emerge Herbicidal Activity CASOB (phytotoxicity rating, scale 0-100) ([8]; 250 g ai/ha) | Pre-emerge Herbicidal Activity ABUTH (phytotoxicity rating, scale 0-100) ([9]; 63 g ai/ha) | Pre-emerge Herbicidal Activity ABUTH (phytotoxicity rating, scale 0-100) ([9]; 250 g ai/ha) | Post-emerge Herbicidal Activity IPOHE ([14]; 63 g ai/ha) | Post-emerge Herbicidal Activity IPOHE ([14]; 250 g ai/ha) | Post-emerge Herbicidal Activity CHEAL ([16]; 250 g ai/ha) | Post-emerge Herbicidal Activity AMARE ([18]; 250 g ai/ha) | Post-emerge Herbicidal Activity ABUTH ([20]; 63 g ai/ha) | Post-emerge Herbicidal Activity ABUTH ([20]; 250 g ai/ha)
60: Pre-emerge crop damage RICE (phytotoxicity rating, scale 0-100) ([11]; 63 g ai/ha) | Post-emerge Herbicidal Activity CORN (crop damage) ([21]; 250 g ai/ha) | Post-emerge Herbicidal Activity RICE (crop damage) ([22]; 250 g ai/ha)
